{"source": "patent US10399985B2", "about": "“(Hetero)aryl imidazoles/pyrazoles for treatment of neurological disorders” (Hoffmann-La Roche Inc., priority 2014, dated 2019)"}
{"target": "human PDE10A (Homo sapiens (Human), UniProt Q9Y233)", "sequence (Q9Y233 other isoform, or with tags, fused parts or gaps)": "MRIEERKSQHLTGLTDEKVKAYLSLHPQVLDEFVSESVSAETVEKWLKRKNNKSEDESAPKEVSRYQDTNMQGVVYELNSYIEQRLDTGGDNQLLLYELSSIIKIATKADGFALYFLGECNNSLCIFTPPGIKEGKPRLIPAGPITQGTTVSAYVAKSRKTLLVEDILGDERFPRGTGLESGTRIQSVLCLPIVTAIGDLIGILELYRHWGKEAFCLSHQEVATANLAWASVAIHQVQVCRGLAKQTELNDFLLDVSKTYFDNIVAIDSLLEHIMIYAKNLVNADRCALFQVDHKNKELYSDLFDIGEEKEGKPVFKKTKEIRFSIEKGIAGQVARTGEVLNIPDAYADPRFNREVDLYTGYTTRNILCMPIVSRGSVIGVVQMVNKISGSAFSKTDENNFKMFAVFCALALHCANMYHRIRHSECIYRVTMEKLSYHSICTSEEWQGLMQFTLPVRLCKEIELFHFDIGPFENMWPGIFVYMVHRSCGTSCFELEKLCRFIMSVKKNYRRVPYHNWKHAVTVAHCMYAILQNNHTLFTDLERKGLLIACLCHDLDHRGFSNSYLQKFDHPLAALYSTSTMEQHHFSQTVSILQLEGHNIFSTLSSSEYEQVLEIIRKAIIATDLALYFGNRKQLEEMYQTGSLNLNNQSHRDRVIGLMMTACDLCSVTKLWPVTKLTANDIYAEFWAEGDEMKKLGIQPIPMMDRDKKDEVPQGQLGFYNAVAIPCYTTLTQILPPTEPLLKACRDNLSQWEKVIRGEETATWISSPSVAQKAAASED", "experiment": "human PDE10A full length Scintillation Proximity Assay (SPA)", "assay_type": "biochemical", "details": "50 nM cGMP and 50 nM [3H]-cGMP, 20 minutes at room temperature", "protocol": "The following test was carried out in order to determine the activity of the compounds of the present invention. PDE10 activity of the compounds of the present invention was determined using a Scintillation Proximity Assay (SPA)-based method similar to the one previously described (Fawcett, L. et al., ProcNatl Acad Sci USA (2000) 97(7):3702-3707).\nThe human PDE10A full length assay was performed in 96-well micro titer plates. The reaction mixture of 50 μl contained 20 mM HEPES pH=7.5/10 mM MgCl2/0.05 mg/ml BSA (Sigma cat. # A-7906), 50 nM cGMP (Sigma, cat. # G6129) and 50 nM [3H]-cGMP (GE Healthcare, cat. # TRK392 S. A. 13.2 Ci/mmol), 3.75 ng/well PDE10A enzyme (Enzo Life Science, Lausen, Switzerland cat # SE-534) with or without a specific test compound. A range of concentrations of the potential inhibitor was used to generate data for calculating the concentration of inhibitor resulting in 50% of the effect (e.g. IC50, the concentration of the competitor inhibiting PDE10A activity by 50%). Non-specific activity was tested without the enzyme. The reaction was initiated by the addition of the substrate solution (cGMP and [3H]-cGMP) and allowed to progress for 20 minutes at room temperature. The reaction was terminated by adding 25 μl of YSi-SPA scintillation beads (GE Healthcare, cat. # RPNQ0150) in 18 mM zinc sulphate solution (stop reagent). After 1 h under shaking, the plate was centrifuged one minute at 170 g to allow beads to settle. Afterwards, radioactive counts were measured on a Perkin Elmer TopCount Scintillation plate reader.", "units": {"IC50": "µM"}}
{"compound": "Cc1nc2ccc(C#Cc3nc(-c4ccccc4)cn3C)nn2c1CO", "note": "[Example 3, (2-Methyl-6-((1-methyl-4-phenyl-1H-imidazol-2-yl)ethynyl)imidazo[1,2-b]pyridazin-3-yl)methanol]", "IC50": 0.001}
{"compound": "Cc1nn2ccc(C#Cc3nc(-c4ccccc4)cn3C)nc2c1C", "note": "[Example 4, 2,3-Dimethyl-5-((1-methyl-4-phenyl-1H-imidazol-2-yl)ethynyl)pyrazolo[1,5-a]pyrimidine]", "IC50": 0.0015}
{"compound": "Cn1cc(-c2ccccc2)nc1C#Cc1ccc2nc(C3CC3)c(CO)n2n1", "note": "[Example 6, (2-Cyclopropyl-6-((1-methyl-4-phenyl-1H-imidazol-2-yl)ethynyl)imidazo[1,2-b]pyridazin-3-yl)methanol]", "IC50": 0.0019}
{"compound": "Cc1c(C(F)F)nc2ccc(C#Cc3nc(-c4ccccc4)cn3C)nn12", "note": "[Example 7, 2-(Difluoromethyl)-3-methyl-6-((1-methyl-4-phenyl-1H-imidazol-2-yl)ethynyl)imidazo[1,2-b]pyridazine]", "IC50": 0.0466}
{"compound": "Cn1cc(-c2ccccc2)nc1C#Cc1ccc2nc(C(F)(F)F)cn2n1", "note": "[Example 8, 6-(1-Methyl-4-phenyl-1H-imidazol-2-ylethynyl)-2-trifluoromethyl-imidazo[1,2-b]pyridazine]", "IC50": 0.001}
{"compound": "Cc1c(C2CC2)nc2ccc(C#Cc3nc(-c4ccccc4)cn3C)nn12", "note": "[Example 10, 2-Cyclopropyl-3-methyl-6-((1-methyl-4-phenyl-1H-imidazol-2-yl)ethynyl)imidazo[1,2-b]pyridazine]", "IC50": 0.012}
{"compound": "Cc1nc2ccc(/C=C/c3nc(-c4ccccc4)nn3C)nn2c1C", "note": "[Example 11, (E)-2,3-Dimethyl-6-(2-(1-methyl-3-phenyl-1H-1,2,4-triazol-5-yl)vinyl)imidazo[1,2-b]pyridazine]", "IC50": 0.0013}
{"compound": "Cc1c(C#N)nc2ccc(/C=C/c3nc(-c4ccccc4)cn3C)nn12", "note": "[Example 12, (E)-3-methyl-6-(2-(1-methyl-4-phenyl-1H-imidazol-2-yl)vinyl)imidazo[1,2-b]pyridazine-2-carbonitrile]", "IC50": 0.0138}
{"compound": "Cc1nc2c(C)c(C)c(CCc3nc(-c4ccccc4)cn3C)nn2c1C", "note": "[Example 14, 2,3,7,8-Tetramethyl-6-(2-(1-methyl-4-phenyl-1H-imidazol-2-yl)ethyl)imidazo[1,2-b]pyridazine]", "IC50": 0.0108}
{"compound": "Cc1nc2ccc(CCc3nc(-c4ccccc4)cn3C)nn2c1CO", "note": "[Example 15, (2-Methyl-6-(2-(1-methyl-4-phenyl-1H-imidazol-2-yl)ethyl)imidazo[1,2-b]pyridazin-3-yl)methanol]", "IC50": 0.0034}
{"compound": "Cc1nn2ccc(CCc3nc(-c4ccccc4)cn3C)nc2c1C", "note": "[Example 16, 2,3-Dimethyl-5-(2-(1-methyl-4-phenyl-1H-imidazol-2-yl)ethyl)pyrazolo[1,5-a]pyrimidine]", "IC50": 0.0024}
{"compound": "Cc1c(C(F)(F)F)nc2ccc(CCc3nc(-c4ccccc4)cn3C)nn12", "note": "[Example 17, 3-Methyl-6-(2-(1-methyl-4-phenyl-1H-imidazol-2-yl)ethyl)-2-(trifluoromethyl)imidazo[1,2-b]pyridazine]", "IC50": 0.0205}
{"compound": "Cn1cc(-c2ccccc2)nc1CCc1ccc2nc(C3CC3)c(CO)n2n1", "note": "[Example 18, (2-Cyclopropyl-6-(2-(1-methyl-4-phenyl-1H-imidazol-2-yl)ethyl)imidazo[1,2-b]pyridazin-3-yl)methanol]", "IC50": 0.656}
{"compound": "Cc1c(C(F)F)nc2ccc(CCc3nc(-c4ccccc4)cn3C)nn12", "note": "[Example 19, 2-(Difluoromethyl)-3-methyl-6-(2-(1-methyl-4-phenyl-1H-imidazol-2-yl)ethyl)imidazo[1,2-b]pyridazine]", "IC50": 0.0064}
{"compound": "Cn1cc(-c2ccccc2)nc1CCc1ccc2nc(C(F)(F)F)cn2n1", "note": "[Example 20, 6-(2-(1-Methyl-4-phenyl-1H-imidazol-2-yl)ethyl)-2-(trifluoromethyl)imidazo[1,2-b]pyridazine]", "IC50": 0.0828}
{"compound": "Cc1nc2ccc(CCc3nc(-c4ccccc4)nn3C)nn2c1C", "note": "[Example 21, 2,3-Dimethyl-6-(2-(1-methyl-3-phenyl-1H-1,2,4-triazol-5-yl)ethyl)imidazo[1,2-b]pyridazine]", "IC50": 0.0277}
{"compound": "Cc1c(C#N)nc2ccc(CCc3nc(-c4ccccc4)cn3C)nn12", "note": "[Example 22, 3-Methyl-6-[2-(1-methyl-4-phenyl-1H-imidazol-2-yl)-ethyl]-imidazo[1,2-b]pyridazine-2-carbonitrile]", "IC50": 0.0054}
{"compound": "Cc1nc2ccc(CCc3nc(-c4ncccn4)cn3C)nn2c1C", "note": "[Example 23, 2,3-Dimethyl-6-(2-(1-methyl-4-(pyrimidin-2-yl)-1H-imidazol-2-yl)ethyl)imidazo[1,2-b]pyridazine]", "IC50": 0.0092}
{"compound": "Cc1nc2ccc(CCc3nc(-c4cccnc4)cn3C)nn2c1C", "note": "[Example 24, 2,3-Dimethyl-6-(2-(1-methyl-4-(pyridin-3-yl)-1H-imidazol-2-yl)ethyl)imidazo[1,2-b]pyridazine]", "IC50": 1.69}
{"compound": "Cc1nc2ccc(CCc3nc(-c4ccncc4)cn3C)nn2c1C", "note": "[Example 25, 2,3-Dimethyl-6-(2-(1-methyl-4-(pyridin-4-yl)-1H-imidazol-2-yl)ethyl)imidazo[1,2-b]pyridazine]", "IC50": 0.0323}
{"compound": "Cc1nc2ccc(CCc3nc(-c4cncnc4)cn3C)nn2c1C", "note": "[Example 26, 2,3-Dimethyl-6-(2-(1-methyl-4-(pyrimidin-5-yl)-1H-imidazol-2-yl)ethyl)imidazo[1,2-b]pyridazine]", "IC50": 0.0985}
{"compound": "Cc1nc2ccc(CCc3nc(-c4ccccn4)cn3C)nn2c1C", "note": "[Example 27, 2,3-Dimethyl-6-(2-(1-methyl-4-(pyridin-2-yl)-1H-imidazol-2-yl)ethyl)imidazo[1,2-b]pyridazine]", "IC50": 0.0033}
{"compound": "Cc1nc2ccc(CCc3nc(-c4ccnnc4)cn3C)nn2c1C", "note": "[Example 28, 2,3-Dimethyl-6-(2-(1-methyl-4-(pyridazin-4-yl)-1H-imidazol-2-yl)ethyl)imidazo[1,2-b]pyridazine]", "IC50": 0.0812}
{"compound": "Cc1nc2ccc(CCc3nc(-c4cnccn4)cn3C)nn2c1C", "note": "[Example 29, 2,3-Dimethyl-6-(2-(1-methyl-4-(pyrazin-2-yl)-1H-imidazol-2-yl)ethyl)imidazo[1,2-b]pyridazine]", "IC50": 0.0332}
{"compound": "Cc1cc(CCc2nc(-c3ccccn3)cn2C)nn2c(C)c(C(F)(F)F)nc12", "note": "[Example 30, 3,8-Dimethyl-6-(2-(1-methyl-4-(pyridin-2-yl)-1H-imidazol-2-yl)ethyl)-2-(trifluoromethyl)imidazo[1,2-b]pyridazine]", "IC50": 0.0037}
{"compound": "CNC(=O)c1cc(CCc2nc(-c3ccccn3)cn2C)nn2c(C)c(C(F)(F)F)nc12", "note": "[Example 31, N,3-Dimethyl-6-(2-(1-methyl-4-(pyridin-2-yl)-1H-imidazol-2-yl)ethyl)-2-(trifluoromethyl)imidazo[1,2-b]pyridazine-8-carboxamide]", "IC50": 0.008}
{"compound": "Cc1nc2ccc(OCc3nc(-c4ccccc4)cn3C)nn2c1C", "note": "[Example 32, 2,3-Dimethyl-6-((1-methyl-4-phenyl-1H-imidazol-2-yl)methoxy)imidazo[1,2-b]pyridazine]", "IC50": 0.0072}
{"compound": "Cc1nc2ccc(OCc3nc(-c4ccccc4)nn3C)nn2c1C", "note": "[Example 33, 2,3-Dimethyl-6-((1-methyl-3-phenyl-1H-1,2,4-triazol-5-yl)methoxy)imidazo[1,2-b]pyridazine]", "IC50": 0.0516}
{"compound": "Cc1nc2c(C)c(C)c(OCc3nc(-c4ccccc4)cn3C)nn2c1C", "note": "[Example 34, 2,3,7,8-Tetramethyl-6-((1-methyl-4-phenyl-1H-imidazol-2-yl)methoxy)imidazo[1,2-b]pyridazine]", "IC50": 0.0017}
{"compound": "CCc1nc2ccc(OCc3nc(-c4ccccc4)cn3C)nn2c1C", "note": "[Example 35, 2-Ethyl-3-methyl-6-((1-methyl-4-phenyl-1H-imidazol-2-yl)methoxy)imidazo[1,2-b]pyridazine]", "IC50": 0.264}
{"compound": "Cc1c(C(F)(F)F)nc2ccc(OCc3nc(-c4ccccc4)cn3C)nn12", "note": "[Example 36, 3-Methyl-6-((1-methyl-4-phenyl-1H-imidazol-2-yl)methoxy)-2-(trifluoromethyl)imidazo[1,2-b]pyridazine]", "IC50": 0.0346}
{"compound": "Cn1cc(-c2ccccc2)nc1COc1ccc2nc(C3CC3)cn2n1", "note": "[Example 37, 2-Cyclopropyl-6-((1-methyl-4-phenyl-1H-imidazol-2-yl)methoxy)imidazo[1,2-b]pyridazine]", "IC50": 0.169}
{"compound": "Cc1cn2nc(OCc3nc(-c4ccccc4)cn3C)ccc2n1", "note": "[Example 38, 2-Methyl-6-((1-methyl-4-phenyl-1H-imidazol-2-yl)methoxy)imidazo[1,2-b]pyridazine]", "IC50": 0.133}
{"compound": "Cc1c(C(N)=O)nc2ccc(OCc3nc(-c4ccccc4)cn3C)nn12", "note": "[Example 39, 3-Methyl-6-((1-methyl-4-phenyl-1H-imidazol-2-yl)methoxy)imidazo[1,2-b]pyridazine-2-carboxamide]", "IC50": 0.115}
{"compound": "Cc1c(C#N)nc2ccc(OCc3nc(-c4ccccc4)cn3C)nn12", "note": "[Example 40, 3-Methyl-6-((1-methyl-4-phenyl-1H-imidazol-2-yl)methoxy)imidazo[1,2-b]pyridazine-2-carbonitrile]", "IC50": 0.0237}
{"compound": "COc1cc(OCc2nc(-c3ccccc3)cn2C)nn2c(C)c(C(F)(F)F)nc12", "note": "[Example 41, 8-Methoxy-3-methyl-6-((1-methyl-4-phenyl-1H-imidazol-2-yl)methoxy)-2-(trifluoromethyl)imidazo[1,2-b]pyridazine]", "IC50": 0.0118}
